Reference: patent publication US4965283A, “Amino acid esters, process for the preparation thereof and use thereof” (Dr. Willmar Schwabe GmbH & Co., priority 1987, dated 1990)
Structures can show the parent of a compound that is named as a salt. Where two headings read alike, the source gives them in different places.

Test system: maximum electroshock spasm (MES), extensor spasm in mice
Assay: MES test (maximum electroshock; inhibition of extensor spasm)
Format: in vivo, male mice (NMRI)
Details: oral; for protective action [%] after 1 hr / protective action [%] after 3 hrs / responders at 100 mg/kg / responders at 50 mg/kg: n = 10; for ED 50 values (estimated values) / ED50 / ED 50 values: MES test, 1 hour after administration; for ED 50 values (estimated values): * estimated from several tests with different dosages; for ED50 / responders at 100 mg/kg / responders at 50 mg/kg: Mus musculus, po; for ED50: read-out: ED 50 values
Source text: For the determination of the anticonvulsive/anti-epileptic activity of the substances according to the present invention the method described by E. A. Swinyard et al., J. Pharmacol. exp. Therapeut. 106, 319-330 (1952) and by L. A. Woodbury et al., Arch. int. Pharmacodyn., 92, 97-107 (1952) was used. To male mice (NMRI) with a body weight of 20-25 g via corneal electrodes, an alternating current of 50 Hz and 50 mA is applied for 0.2 sec. (HSE-shock stimulation apparatus; type 207). The maximum electroshock spasm (MES) consists of a tonic extension of the rear extremities, the clonic twitch and loss of consciousness. The activity criterion is taken as being the inhibition of the extensor spasm by the substances according to the present invention. Before the experiments the mice had free access to feed and water. The test substances were administered orally as suspensions in 0.2% agar by stomach tubes; the control animals received adequate volumes of agar. 1 hour and 3 hours after administration the test for protective action against MES was carried out.
As percentage action the percentage proportion of those animals which in the MES test were protected 100% against the extensor spasm is given. 10 animals were used per test.
The ED 50 values were determined according to Lichtfield and Wilcoxon J. Pharmacol. exp. Therapeut. 96, 99 (1949) in each case with 4 to 5 animal groups each of 8-10 animals per dosage stage.

[1] = 100 mg/kg, 1 hr after administration
[2] = 100 mg/kg, 3 hrs after administration
[3] = 50 mg/kg, 1 hr after administration
[4] = 50 mg/kg, 3 hrs after administration
[5] = 1 h, 100 mg/kg, 1 hr after administration, read-out: protective action [%] after 1 hr
[6] = 3 h, 100 mg/kg, 3 hrs after administration, read-out: protective action [%] after 3 hrs
[7] = 1 h, 50 mg/kg, 1 hr after administration, read-out: protective action [%] after 1 hr
[8] = 3 h, 50 mg/kg, 3 hrs after administration, read-out: protective action [%] after 3 hrs

COC1=CC(=O)OC1C(OC(=O)[C@@H]1CCCN1)c1ccccc1F (single isomer, unassigned) [129 B]
protective action [%] after 1 hr [1]: 50%
protective action [%] after 3 hrs [2]: 0%
ED 50 values (estimated values): 95 to 105 mg/kg

COC1=CC(=O)O[C@H]1[C@H](OC(=O)CN)c1ccc(Cl)cc1Cl (relative stereo) [Example 131, threo-5-[2,4-dichlorophenyl-(glycyloxy)-methyl]-4-methoxy-2(5H)-furanone hydrochloride]
ED50 (1 h): 54.5 mg/kg

COC1=CC(=O)O[C@H]1[C@H](OC(=O)[C@@H]1CCCN1)c1ccccc1Cl [104 B]
protective action [%] after 1 hr [1]: 60%
protective action [%] after 3 hrs [2]: 0%
ED 50 values (60 min): 105 mg/kg

Br.COC1=CC(=O)OC1C(OC(=O)CN)c1ccccc1Cl (single isomer, unassigned; (+)) [Example 151, (+)-threo-5-[2-chlorophenyl-(glycyloxy)-methyl]-4-methoxy-2(5H)-furanone hydrobromide]
protective action [%] after 1 hr [3]: 100%
protective action [%] after 3 hrs [4]: 100%
ED 50 values: 12.2 mg/kg

COC1=CC(=O)O[C@H]1[C@H](OC(=O)CNC(C)=O)c1ccc(Cl)cc1Cl (relative stereo) [Example 132, threo-5-[N-acetylglycyloxy-(2,4-dichlorophenyl)-methyl]-4-methoxy-2(5H)-furanone]
responders at 100 mg/kg [5]: 20%
responders at 100 mg/kg [6]: 50%

Br.COC1=CC(=O)OC1C(OC(=O)CN)c1ccccc1Cl (single isomer, unassigned; (-)) [Example 153]
protective action [%] after 1 hr [1]: 40%
protective action [%] after 3 hrs [2]: 0%

COC1=CC(=O)OC1C(OC(=O)[C@@H]1CCCN1C(=O)OCc1ccccc1)c1ccccc1C(F)(F)F (single isomer, unassigned) [138 A]
responders at 100 mg/kg [5]: 30%
responders at 100 mg/kg [6]: 20%

COC1=CC(=O)OC1C(OC(=O)[C@H](Cc1ccccc1)N=C(C)C)c1ccccc1Cl (single isomer, unassigned) [121 A]
responders at 50 mg/kg [7]: 100%
responders at 50 mg/kg [8]: 90%

COC1=CC(=O)OC1C(OC(=O)[C@@H]1CCC(=O)N1)c1ccccc1Cl (single isomer, unassigned) [125 A]
responders at 50 mg/kg [7]: 100%
responders at 50 mg/kg [8]: 80%

COC1=CC(=O)OC1C(OC(=O)[C@H](CCSC)NC(C)=O)c1ccccc1Cl (single isomer, unassigned) [124 A]
ED 50 values (estimated values): 25 to 35 mg/kg
responders at 100 mg/kg [5]: 100%
responders at 100 mg/kg [6]: 20%

COC1=CC(=O)O[C@H]1[C@H](OC(=O)CN)c1ccccc1Cl (relative stereo) [Example 112, threo-5-[2-chlorophenyl-glycyloxy)methyl-4-methoxy-2(5H)-furanone hydrochloride]
protective action [%] after 3 hrs (50 mg/kg, 3 hrs after administration, hydrochloride): 70%
ED 50 values (hydrochloride, 60 min): 22.2 mg/kg

COC1=CC(=O)OC1C(OC(=O)[C@@H](N)CCC(N)=O)c1ccccc1Cl (single isomer, unassigned) [122 A]
ED 50 values (estimated values): 15 to 20 mg/kg
responders at 50 mg/kg [7]: 100%
responders at 50 mg/kg [8]: 100%

COC1=CC(=O)O[C@H]1[C@H](OC(=O)[C@@H]1CCCN1)c1ccccc1Cl [103 B]
responders at 100 mg/kg [5]: 50%
ED50 (1 h): 95 mg/kg
responders at 100 mg/kg [6]: 0%

COC1=CC(=O)OC1C(OC(=O)[C@@H](N)c1ccccc1)c1ccccc1Cl (single isomer, unassigned) [117 A]
protective action [%] after 3 hrs [4]: 100%
responders at 50 mg/kg [7]: 100%
ED50 (1 h): 16 mg/kg

COC1=CC(=O)O[C@@H]1[C@@H](OC(=O)[C@@H]1CCCN1)c1ccccc1Cl [103 A]
responders at 100 mg/kg [5]: 100%
ED50 (1 h): 10.7 mg/kg
responders at 100 mg/kg [6]: 100%

COC1=CC(=O)OC1C(OC(=O)[C@@H]1CCCN1C(C)=O)c1ccccc1Cl (single isomer, unassigned) [107 A]
ED 50 values (estimated values): 10 to 15 mg/kg
responders at 100 mg/kg [5]: 100%
responders at 100 mg/kg [6]: 60%

COC1=CC(=O)OC1C(OC(=O)[C@@H](N)c1ccccc1)c1ccccc1Cl (single isomer, unassigned) [117 B]
protective action [%] after 1 hr [3]: 90%
protective action [%] after 3 hrs [4]: 0%
ED 50 values (60 min): 25.3 mg/kg
